Source: PubChem BioAssay AID687005 (Broad Institute, 2013)
Records with an inconclusive call do not appear. Activity calls are given as the source filed them.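 How the source made its calls: active means Compounds that reduce signal, with fitted half-maximal dose at or under twice the top valid tested dose; inconclusive means Poor fit, or flat curve losing 30 to 70% of signal; inactive means Potency past limit, flat within 30%, or opposite direction.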

Test: HEK293T cell cytotoxicity, dose response, cytotoxicity control, ATP luminescence, cherry-pick samples (AID 687005)
Conditions: HEK293T viability, ATP luminescence (CellTiter-Glo), 48 h; at 23.5 µM (top of the series)
With `COc1ccccc1-c1ccc([C@H]2[C@@H](C#N)N(C(=O)C3CC3)[C@@H]2CO)cc1` the activity change, negative = cytotoxicity was 27.7% (inactive).
In the case of `C[C@H]1CN([C@@H](C)CO)C(=O)c2cc(NC(=O)Nc3ccc4c(c3)OCO4)ccc2O[C@@H]1CN(C)CC1CCCCC1`, the activity change, negative = cytotoxicity is reported as -55.7% (inactive).
With `C[C@H](CO)N1C[C@H](C)[C@@H](CN(C)C(=O)c2ccncc2)OCCCC[C@H](C)Oc2ccc(NC(=O)Cc3ccccc3)cc2C1=O` the activity change, negative = cytotoxicity was -0.45% (inactive).
In the case of `COC(=O)C1=C(C)N(Cc2ccc(Cl)cc2)C(=S)NC1c1ccc(Br)cc1` (stereo not given), the activity change, negative = cytotoxicity is reported as -20.4% (inactive).
In the case of `C[C@@H]1CN([C@H](C)CO)C(=O)c2cc(NC(=O)Nc3cccc4ccccc34)ccc2O[C@H]1CN(C)C(=O)Nc1ccc(C(F)(F)F)cc1`, the activity change, negative = cytotoxicity is reported as -31% (inactive).
For `Cc1ccc(S(=O)(=O)N2C[C@@H](O)COC[C@H]3O[C@H](CC(=O)NCc4ccc5c(c4)OCO5)CC[C@@H]32)cc1`, the activity change, negative = cytotoxicity was -12.4% (inactive).

Same assay, conditions: HEK293T viability, ATP luminescence (CellTiter-Glo), 48 h; at 26 µM (top of the series)
For `CNC[C@@H]1Oc2c(NS(=O)(=O)c3ccc(Cl)cc3)cccc2C(=O)N([C@H](C)CO)C[C@H]1C`, the activity change, negative = cytotoxicity was 24.2% (inactive).
In the case of `N#Cc1ccc(C23CC4(C2)[C@H](CN(Cc2ccc(C(F)(F)F)cc2)[C@@H]4c2ccccc2)C3c2ccc(C(F)(F)F)cc2)cc1` (stereo not given in full), the activity change, negative = cytotoxicity is reported as 10.4% (inactive).
With `C[C@H](O)C#Cc1ccc([C@H]2[C@H](CO)N3CCCCN(CC4CCOCC4)C[C@@H]23)cc1` the activity change, negative = cytotoxicity was 21.6% (inactive).
In the case of `C[C@H](CO)N1C[C@H](C)[C@H](CN(C)C(=O)NC2CCCCC2)OCCCC[C@H](C)Oc2ccc(NS(=O)(=O)c3cn(C)cn3)cc2C1=O`, the activity change, negative = cytotoxicity is reported as 3.14% (inactive).
With `Cc1ccc(OCCn2c(=S)[nH]c3ccccc32)c(C(C)C)c1` the activity change, negative = cytotoxicity was -49.7% (inactive).
In the case of `COC(=O)C1=C(C)N(Cc2ccc(F)cc2)C(=S)NC1c1cccc(Cl)c1` (stereo not given), the activity change, negative = cytotoxicity is reported as -1.12% (inactive).
With `Cc1noc(C)c1NC(=O)Nc1ccc2c(c1)C(=O)N([C@H](C)CO)C[C@@H](C)[C@H](CN(C)C(=O)Nc1ccc(F)cc1)OCCCC[C@@H](C)O2` the activity change, negative = cytotoxicity was -26.1% (inactive).
For `COc1cccc(-c2ccc3c(c2)[C@H]2[C@H](CCN2C(=O)Cc2ccncc2)[C@H](CO)N3C)c1`, the activity change, negative = cytotoxicity was 125% (inactive).
In the case of `C[C@@H]1CN([C@@H](C)CO)C(=O)c2cc(C3=CCCCC3)cnc2O[C@H]1CN(C)C(=O)Cc1cccnc1`, the activity change, negative = cytotoxicity is reported as -18.3% (inactive).
For `O=C(Oc1ccc2c3c(c(=O)oc2c1)CCCC3)c1ccco1`, the activity change, negative = cytotoxicity was -27.5% (inactive).
In the case of `COC(=O)C1=C(C)N(Cc2ccc(Cl)cc2)C(=S)NC1c1ccc(F)cc1` (stereo not given), the activity change, negative = cytotoxicity is reported as -32.8% (inactive).
For `O=C(c1cccc(F)c1)N1C[C@H]2[C@@H](c3ccccc31)[C@@H](CO)N2Cc1cocn1`, the activity change, negative = cytotoxicity was -0.298% (inactive).
In the case of `CCCN(C)C[C@H]1OCCCC[C@@H](C)Oc2ccc(NC(=O)NC(C)C)cc2C(=O)N([C@@H](C)CO)C[C@H]1C`, the activity change, negative = cytotoxicity is reported as -9.71% (inactive).
In the case of `Cc1cccc(C)c1NC(=O)C(C)N1CCCCC1` (stereo not given), the activity change, negative = cytotoxicity is reported as 6.43% (inactive).
For `C[C@@H]1CN([C@H](C)CO)C(=O)c2cc(-c3cccc(F)c3)cnc2O[C@H]1CN(C)Cc1ccccc1`, the activity change, negative = cytotoxicity was -7.8% (inactive).
In the case of `C[C@@H]1CN([C@H](C)CO)C(=O)c2cc(NS(=O)(=O)c3cn(C)cn3)ccc2O[C@@H](C)CCCCO[C@H]1CN(C)C`, the activity change, negative = cytotoxicity is reported as 21.8% (inactive).
With `CN1C(=O)N[C@@H]2c3ccccc3O[C@@]1(C)[C@@H]2COC(=O)c1ccccc1` the activity change, negative = cytotoxicity was -8.64% (inactive).
In the case of `C[C@@H]1CN([C@@H](C)CO)C(=O)c2cccc(NS(C)(=O)=O)c2O[C@@H]1CN(C)C(=O)Nc1ccc2c(c1)OCO2`, the activity change, negative = cytotoxicity is reported as -20.4% (inactive).
With `CC1CCCCN1C(=O)CSc1nc(C2CC2)nc2c1cnn2-c1ccccc1` (stereo not given) the activity change, negative = cytotoxicity was 39.5% (inactive).
With `CCNC(=O)Nc1ccc2c(c1)C(=O)N(C)[C@H]1CC[C@H](CC(=O)Nc3ccccc3F)O[C@@H]1CO2` the activity change, negative = cytotoxicity was 46.5% (inactive).
For `COCC(=O)NC[C@H]1N[C@H](CO)[C@@H]1c1ccc(C2=CCCC2)cc1`, the activity change, negative = cytotoxicity was 16.1% (inactive).
With `COc1ccccc1-c1cnc2c(c1)C(=O)N([C@H](C)CO)C[C@@H](C)[C@H](CN(C)Cc1cncnc1)O2` the activity change, negative = cytotoxicity was 28.4% (inactive).
For `COc1ccc(-n2ncc3c(SCC(=O)OC(C)C)ncnc32)cc1`, the activity change, negative = cytotoxicity was -5.94% (inactive).
For `CCC(=O)N1[C@H](CO)[C@H](c2ccccc2)[C@H]1CN(CC)C(=O)c1cccc(F)c1`, the activity change, negative = cytotoxicity was -0.378% (inactive).
In the case of `COc1ccc(N2CCN(C(=O)CSc3ncnc4c3cnn4-c3ccc(OC)cc3)CC2)cc1`, the activity change, negative = cytotoxicity is reported as -4.11% (inactive).
With `O=C(C[C@H]1CC[C@H]2[C@@H](COC[C@@H](O)CN2C(=O)Nc2ccc(Cl)cc2)O1)N1CCCCC1` the activity change, negative = cytotoxicity was 25.8% (inactive).
For `O=C(c1c(Cl)cccc1Cl)N1CCN(c2ccccn2)CC1`, the activity change, negative = cytotoxicity was -3.99% (inactive).
With `C[C@@H]1CN([C@@H](C)CO)C(=O)c2cccc(NC(=O)c3ccncc3)c2O[C@H]1CN(C)C(=O)Nc1ccccc1` the activity change, negative = cytotoxicity was 6.14% (inactive).
In the case of `C[C@@H]1CN([C@H](C)CO)C(=O)c2cc(/C=C/c3ccccc3)cnc2O[C@@H]1CN(C)S(C)(=O)=O`, the activity change, negative = cytotoxicity is reported as -0.658% (inactive).
With `CC=Cc1ccc2n(c1=O)C[C@@H]1[C@@H](CO)[C@H](C(=O)NCc3ccc4c(c3)OCO4)[C@H]2N1C(=O)C1CC1` (mixture of isomers) the activity change, negative = cytotoxicity was -8.54% (inactive).
For `COc1cc2c(C(=O)N(C)c3cc(Cl)ccc3OC)cn(C)c(=O)c2cc1OC`, the activity change, negative = cytotoxicity was -3.77% (inactive).
For `CC(=O)NC[C@H]1[C@@H](c2ccc(C3=CCCC3)cc2)[C@@H](CO)N1C(=O)NC(C)C`, the activity change, negative = cytotoxicity was -31.1% (inactive).
With `CC(C)C#Cc1ccc2c(c1)O[C@H](CN(C)C(=O)Cc1ccccn1)[C@H](C)CN([C@H](C)CO)S2(=O)=O` the activity change, negative = cytotoxicity was -25.6% (inactive).
In the case of `CN(C)C(=O)c1ccc(-c2ccc([C@H]3[C@H](CO)N4CCCCN(CCC(F)(F)F)C[C@@H]34)cc2)cc1`, the activity change, negative = cytotoxicity is reported as -23.6% (inactive).
For `CNC[C@@H]1OCCCC[C@@H](C)Oc2ccc(NC(=O)NC(C)C)cc2C(=O)N([C@@H](C)CO)C[C@H]1C`, the activity change, negative = cytotoxicity was 34.5% (inactive).
In the case of `Cc1ccc(S(=O)(=O)N(C)C[C@@H]2Oc3ncc(Br)cc3C(=O)N([C@@H](C)CO)C[C@H]2C)cc1`, the activity change, negative = cytotoxicity is reported as -14.6% (inactive).
In the case of `CC(C)NC(=O)NCC[C@@H]1CC[C@@H](NC(=O)CN(C)C)[C@@H](CO)O1`, the activity change, negative = cytotoxicity is reported as 44.1% (inactive).
In the case of `C[C@H](CO)N1C[C@H](C)[C@@H](CN(C)Cc2ccc(-c3ccccc3)cc2)Oc2ccc(NC(=O)Nc3ccc(C(F)(F)F)cc3)cc2C1=O`, the activity change, negative = cytotoxicity is reported as -3.25% (inactive).
With `O=C(CSc1ncnc2c1cnn2-c1ccccc1)NC1CCS(=O)(=O)C1` (stereo not given) the activity change, negative = cytotoxicity was 5% (inactive).
With `COc1ccc(CN(C)C[C@@H]2Oc3ccc(NC(=O)C4CC4)cc3C(=O)N([C@H](C)CO)C[C@H]2C)cc1` the activity change, negative = cytotoxicity was 15.3% (inactive).
For `O=C(C[C@H]1CC[C@H]2[C@@H](COC[C@@H](O)CN2S(=O)(=O)c2ccc(Oc3ccccc3)cc2)O1)NC1CCC1`, the activity change, negative = cytotoxicity was 16.3% (inactive).
With `CC(C)NC(=O)Nc1ccc2c(c1)CC(=O)N([C@@H](C)CO)C[C@@H](C)[C@@H](CN(C)S(=O)(=O)c1ccc(Cl)cc1)O2` the activity change, negative = cytotoxicity was 6.41% (inactive).
In the case of `O=C(COc1ccc2c(c1)CCC2)NCc1ccccc1`, the activity change, negative = cytotoxicity is reported as 1.59% (inactive).
With `CNC(=O)C[C@H]1CC[C@H]2[C@@H](COc3ccc(NC(=O)Nc4ccccc4)cc3C(=O)N2C)O1` the activity change, negative = cytotoxicity was 7.97% (inactive).
With `CNC[C@@H]1OCCCC[C@H](C)Oc2ccc(NC(=O)NC(C)C)cc2C(=O)N([C@H](C)CO)C[C@H]1C` the activity change, negative = cytotoxicity was 14.1% (inactive).
With `Cc1cc(Cl)ccc1NC(=S)NCc1ccc(F)cc1` the activity change, negative = cytotoxicity was 6.1% (inactive).
For `COc1ccc(CN(C)C[C@@H]2OCCCC[C@H](C)Oc3ccc(N(C)C)cc3C(=O)N([C@H](C)CO)C[C@@H]2C)cc1`, the activity change, negative = cytotoxicity was 12.7% (inactive).
With `COc1ccccc1NC(=O)N[C@@H]1CC[C@H](CCn2cc(-c3ccccc3OC)nn2)O[C@H]1CO` the activity change, negative = cytotoxicity was -11.8% (inactive).
For `CCNC(=O)C[C@H]1CC[C@H](NC(=O)NC2CCCCC2)[C@@H](CO)O1`, the activity change, negative = cytotoxicity was -1.55% (inactive).
With `CC(C)CC#Cc1cnc2c(c1)C(=O)N([C@H](C)CO)C[C@@H](C)[C@@H](CN(C)C(=O)c1ccc3c(c1)OCO3)O2` the activity change, negative = cytotoxicity was 33.9% (inactive).
In the case of `Cc1ccc(S(=O)(=O)N[C@@H]2CC[C@H](CCNC(=O)C3CCCC3)O[C@@H]2CO)cc1`, the activity change, negative = cytotoxicity is reported as -17.8% (inactive).
In the case of `CO[C@@H]1CN(C)C(=O)c2cc(NC(=O)C3CC3)ccc2OC[C@H](C)N(C(=O)c2ccncc2)C[C@H]1C`, the activity change, negative = cytotoxicity is reported as -22.9% (inactive).
For `C[C@H](CO)N1C[C@H](C)[C@H](CN(C)S(=O)(=O)c2ccccc2)Oc2ccc(NS(=O)(=O)c3ccc(F)cc3)cc2C1=O`, the activity change, negative = cytotoxicity was -25.5% (inactive).
In the case of `C[C@@H]1CN([C@@H](C)CO)C(=O)c2cccc(N(C)C)c2O[C@H]1CN(C)C(=O)Nc1ccc(C(F)(F)F)cc1`, the activity change, negative = cytotoxicity is reported as -5.69% (inactive).
In the case of `CC(C)CC#Cc1cnc2c(c1)C(=O)N([C@@H](C)CO)C[C@H](C)[C@H](CN(C)C(=O)c1ccc3c(c1)OCO3)O2`, the activity change, negative = cytotoxicity is reported as 16.5% (inactive).
For `COc1ccc(OC(C)C(=O)NC(C)c2ccccc2)cc1` (stereo not given), the activity change, negative = cytotoxicity was -8.71% (inactive).

Same assay, conditions: HEK293T viability, ATP luminescence (CellTiter-Glo), 48 h; at 30 µM (top of the series)
For `COC(=O)C1=C(C)N(CC(C)C)C(=S)NC1c1cccc(F)c1` (stereo not given), the activity change, negative = cytotoxicity was -13.7% (inactive).
With `COCCN1C(=S)N[C@@H](c2ccccc2)C(C(=O)OC)=C1C` the activity change, negative = cytotoxicity was 28.9% (inactive).

Same assay, conditions: HEK293T viability, ATP luminescence (CellTiter-Glo), 48 h; at 46 µM (top of the series)
In the case of `CCC(C)(C(=O)Nc1cccc(C)c1)N1CCC1=O` (stereo not given), the activity change, negative = cytotoxicity is reported as 0.095% (inactive).
